Test results: US20180265877A1, “METHODS AND COMPOSITIONS FOR AGROBACTERIUM COMPRISING NEGATIVE SELECTION MARKERS” (PIONEER HI-BRED INTERNATIONAL, INC., priority 2015, published 2018)

Tests used:
Assay type in all cases: cell-based
[1] = test system: four Agrobacterium strains (AGL0, LBA4404, EHA101 and EHA105); test: Agrobacterium growth assay, the four strains
Protocol: (§1) For all Agrobacterium growth-assay experiments, standard Agrobacterium minimal medium was used, with no additives as a control treatment, or with the addition of either 5-fluorocytosine, 5-fluorouracil or thymidine. To begin these tests, experiments were conducted to test for growth of wild-type and mutant AGL0 Agrobacterium strains on either 5-fluorocytosine (5-fluorocytosine, the non-toxic substrate of the CODA protein) or 5-fluorouracil (5-fluorouracil, the toxic product).

[2] = test system: Agrobacterium strain EHA101; test: Agrobacterium growth assay on solid minimal medium, EHA101; design: key: a score of zero (0) indicating no visible colonies; 1+ indicating a few isolated colonies; ++: progressing up to 5+; +++: progressing up to 5+; ++++: progressing up to 5+; +++++: 5+ indicating a confluent lawn; details: EHA101 plated at 1 x 10^4, after 3 days
Protocol: as §1

AGL0 THY− = test: Agrobacterium growth assay on solid medium, thymidine auxotroph AGL0 THY−; details: for Growth score: after 24 hours
Protocol: (§2) In Table 4, results of a more detailed kill-curve for strain AGL0 on 5-fluorouracil are shown. […] Finally, a third experiment was performed using either wild-type AGL0 or an auxotrophic mutant of AGL0 in which the gene encoding thymidylate synthase was inactivated, rendering the bacteria incapable of growth in the absence of thymidine (this strain was referred to as AGL0 THY−). The two strains were plated at high densities (10^6 or 10^8 CFU/plate) onto medium containing 0, 1 or 3 μg/ml 5-fluorouracil, with each of these three treatments containing either 0 or 50 mg/l thymidine.

[3] = test system: Agrobacterium strain AGL0; test: Agrobacterium growth assay on solid minimal medium, wild-type AGL0; design: key to Growth score: a score of zero (0) indicating no visible colonies; 1+ indicating a few isolated colonies; ++: progressing up to 5+; +++: progressing up to 5+; ++++: progressing up to 5+; +++++: 5+ indicating a confluent lawn
Protocol: as §1, §2
The newly developed AGL0 mutant strain (THY−/codA+, see Example 1) was plated on varying concentrations of 5-fluorocytosine to assess growth. This strain, along with wild-type AGL0 were cultured overnight in liquid medium, diluted to 10^7 CFU and then 100 μl of suspension was plated onto minimal Agro medium+/− thymidine, with either 0, 100, 200 or 300 μg/ml 5-fluorocytosine, for a total of 8 treatments. After 72 hours at 28° C., the plates were scored for Agrobacterium growth.

[4] = test system: Agrobacterium strain LBA4404; test: Agrobacterium growth assay on solid minimal medium, LBA4404; design: key: a score of zero (0) indicating no visible colonies; 1+ indicating a few isolated colonies; ++: progressing up to 5+; +++: progressing up to 5+; ++++: progressing up to 5+; +++++: 5+ indicating a confluent lawn; details: LBA4404 plated at 1 × 10^4, after 3 days
Protocol: as §1

[5] = test system: Agrobacterium strain EHA105; test: Agrobacterium growth assay on solid minimal medium, EHA105; design: key: a score of zero (0) indicating no visible colonies; 1+ indicating a few isolated colonies; ++: progressing up to 5+; +++: progressing up to 5+; ++++: progressing up to 5+; +++++: 5+ indicating a confluent lawn; details: EHA105 plated at 1 × 10^4, after 3 days
Protocol: as §1

## O=c1[nH]cc(F)c(=O)[nH]1 [5-fluorouracil]
[1]; 1 μg/ml 5-fluorouracil, all four strains plated at the lower density (1×10^4 CFU)
  Growth: no growth
[1]; 3 μg/ml 5-fluorouracil, any strain
  Growth: no growth was observed
[1]; fold lower
  Totally inhibiting 5-fluorouracil concentration (3 μg/ml) relative to highest 5-fluorocytosine concentration tested (1000 μg/ml): over 300 fold
[2]; 0.1 μg/ml 5-fluorouracil
  Growth score: ++
[2]; 1.0 μg/ml 5-fluorouracil
  Growth score: 0
[2]; 3.0 μg/ml 5-fluorouracil
  Growth score: 0
AGL0 THY−; AGL0 THY- 1 x 10^6, 5-fluorouracil 1 μg/ml, no thymidine
  Growth score: 0
AGL0 THY−; AGL0 THY- 1 x 10^6, 5-fluorouracil 1 μg/ml, thy 50 mg/l
  Growth score: 0
AGL0 THY−; AGL0 THY- 1 x 10^6, 5-fluorouracil 3 μg/ml, no thymidine
  Growth score: 0
AGL0 THY−; AGL0 THY- 1 x 10^6, 5-fluorouracil 3 μg/ml, thy 50 mg/l
  Growth score: 0
AGL0 THY−; AGL0 THY- 1 x 10^8, 5-fluorouracil 1 μg/ml, no thymidine
  Growth score: 0
AGL0 THY−; AGL0 THY- 1 x 10^8, 5-fluorouracil 1 μg/ml, thy 50 mg/l
  Growth score: 0
AGL0 THY−; AGL0 THY- 1 x 10^8, 5-fluorouracil 3 μg/ml, no thymidine
  Growth score: 0
AGL0 THY−; AGL0 THY- 1 x 10^8, 5-fluorouracil 3 μg/ml, thy 50 mg/l
  Growth score: 0
AGL0 THY−; THY− AGL0, 1 and 3 μg/ml 5-fluorouracil, 0 or 50 mg/l thymidine, 24 hours
  Growth: no growth was observed
[3]; 0.3 μg/ml 5-fluorouracil, plating densities 1×10^3 to 1×10^8 CFU/plate
  Growth: only a few colonies grew
[3]; 1 μg/ml 5-fluorouracil or higher, all plating densities
  Growth: completely inhibited
[3]; AGL0 1 x 10^6, 5-fluorouracil 1 μg/ml, no thymidine, after 24 hours
  Growth score: 0
[3]; AGL0 1 x 10^6, 5-fluorouracil 1 μg/ml, thy 50 mg/l, after 24 hours
  Growth score: 0
[3]; AGL0 1 x 10^6, 5-fluorouracil 3 μg/ml, no thymidine, after 24 hours
  Growth score: 0
[3]; AGL0 1 x 10^6, 5-fluorouracil 3 μg/ml, thy 50 mg/l, after 24 hours
  Growth score: 0
[3]; AGL0 1 x 10^8, 5-fluorouracil 1 μg/ml, no thymidine, after 24 hours
  Growth score: 0
[3]; AGL0 1 x 10^8, 5-fluorouracil 1 μg/ml, thy 50 mg/l, after 24 hours
  Growth score: 0
[3]; AGL0 1 x 10^8, 5-fluorouracil 3 μg/ml, no thymidine, after 24 hours
  Growth score: 0
[3]; AGL0 1 x 10^8, 5-fluorouracil 3 μg/ml, thy 50 mg/l, after 24 hours
  Growth score: 0
[3]; AGL0 1 × 10^3 CFU, 0.1 μg/ml 5-fluorouracil, 72 hours
  Growth score: ++
[3]; AGL0 1 × 10^3 CFU, 0.3 μg/ml 5-fluorouracil, 72 hours
  Growth score: +
[3]; AGL0 1 × 10^3 CFU, 1 μg/ml 5-fluorouracil, 72 hours
  Growth score: 0
[3]; AGL0 1 × 10^3 CFU, 3 μg/ml 5-fluorouracil, 72 hours
  Growth score: 0
[3]; AGL0 1 × 10^4 CFU, 0.1 μg/ml 5-fluorouracil, 72 hours
  Growth score: ++
[3]; AGL0 1 × 10^4 CFU, 0.3 μg/ml 5-fluorouracil, 72 hours
  Growth score: +
[3]; AGL0 1 × 10^4 CFU, 1 μg/ml 5-fluorouracil, 72 hours
  Growth score: 0
[3]; AGL0 1 × 10^4 CFU, 3 μg/ml 5-fluorouracil, 72 hours
  Growth score: 0
[3]; AGL0 1 × 10^5 CFU, 0.1 μg/ml 5-fluorouracil, 72 hours
  Growth score: +++
[3]; AGL0 1 × 10^5 CFU, 0.3 μg/ml 5-fluorouracil, 72 hours
  Growth score: +
[3]; AGL0 1 × 10^5 CFU, 1 μg/ml 5-fluorouracil, 72 hours
  Growth score: 0
[3]; AGL0 1 × 10^5 CFU, 3 μg/ml 5-fluorouracil, 72 hours
  Growth score: 0
[3]; AGL0 1 × 10^6 CFU, 0.1 μg/ml 5-fluorouracil, 72 hours
  Growth score: ++
[3]; AGL0 1 × 10^6 CFU, 0.3 μg/ml 5-fluorouracil, 72 hours
  Growth score: +
[3]; AGL0 1 × 10^6 CFU, 1 μg/ml 5-fluorouracil, 72 hours
  Growth score: 0
[3]; AGL0 1 × 10^6 CFU, 3 μg/ml 5-fluorouracil, 72 hours
  Growth score: 0
[3]; AGL0 1 × 10^7 CFU, 0.1 μg/ml 5-fluorouracil, 72 hours
  Growth score: ++
[3]; AGL0 1 × 10^7 CFU, 0.3 μg/ml 5-fluorouracil, 72 hours
  Growth score: +
[3]; AGL0 1 × 10^7 CFU, 1 μg/ml 5-fluorouracil, 72 hours
  Growth score: 0
[3]; AGL0 1 × 10^7 CFU, 3 μg/ml 5-fluorouracil, 72 hours
  Growth score: 0
[3]; AGL0 1 × 10^8 CFU, 0.1 μg/ml 5-fluorouracil, 72 hours
  Growth score: +++
[3]; AGL0 1 × 10^8 CFU, 0.3 μg/ml 5-fluorouracil, 72 hours
  Growth score: +
[3]; AGL0 1 × 10^8 CFU, 1 μg/ml 5-fluorouracil, 72 hours
  Growth score: 0
[3]; AGL0 1 × 10^8 CFU, 3 μg/ml 5-fluorouracil, 72 hours
  Growth score: 0
[3]; AGL0 plated at 1 × 10^4, 0.1 μg/ml 5-fluorouracil, after 3 days
  Growth score: +
[3]; AGL0 plated at 1 × 10^4, 1.0 μg/ml 5-fluorouracil, after 3 days
  Growth score: 0
[3]; AGL0 plated at 1 × 10^4, 3.0 μg/ml 5-fluorouracil, after 3 days
  Growth score: 0
[3]; AGL0 plated at 4 × 10^7, 0.1 μg/ml 5-fluorouracil, after 3 days
  Growth score: ++++
[3]; AGL0 plated at 4 × 10^7, 1.0 μg/ml 5-fluorouracil, after 3 days
  Growth score: ++++
[3]; AGL0 plated at 4 × 10^7, 3.0 μg/ml 5-fluorouracil, after 3 days
  Growth score: 0
[3]; wild-type AGL0, 1 and 3 μg/ml 5-fluorouracil, 0 or 50 mg/l thymidine, 24 hours
  Growth: no growth was observed
[4]; 0.1 μg/ml 5-fluorouracil
  Growth score: +++
[4]; 1.0 μg/ml 5-fluorouracil
  Growth score: 0
[4]; 3.0 μg/ml 5-fluorouracil
  Growth score: 0
[5]; 0.1 μg/ml 5-fluorouracil
  Growth score: +
[5]; 1.0 μg/ml 5-fluorouracil
  Growth score: 0
[5]; 3.0 μg/ml 5-fluorouracil
  Growth score: 0
